Several values for one entry are separate records, joined by “and”; a condition that tells them apart may be missing. Identical values can stand only once.

One may read the IC50 as the concentration at which inhibition is half-maximal. A low value points to higher potency.

The assay deals with P. falciparum 3D7 growth, pLDH absorbance. The experiment in a line: blood-stage malaria parasite growth potency – strain 3D7, dose response (AID 2305).
Consider `COc1ccc(CNC(=O)Nc2cc3cc(-c4ccc(CN(C)C)cc4)ccc3n3c(C)nnc23)cc1`, for which the IC50 is 850 nM. As for `COc1cc(NC(=O)CCCCCCCN2CCN(C)CC2)c2ncccc2c1`, the IC50 amounted to 610 nM. Take `CCCn1c(Sc2ccc(C#N)c([N+](=O)[O-])c2)nnc1-c1ccc(Cl)cc1`: the IC50 worked out at 540 nM.

Consider `O=C(/C=C/c1ccc(Cl)c(Cl)c1)N1CCC(CCCN2CCC(c3c[nH]c4ccccc34)CC2)CC1`, for which the half-inhibitory concentration (IC50) was found to be 710 nM. As to `O=C(Nc1ccc(Cl)cn1)c1sc2ccccc2c1O`, the IC50 is 1040 nM. `COc1ccccc1CN1CCC(NC(=O)c2ccc(-c3ccc(N(C)C)cc3)s2)CC1` gave an IC50 of 960 nM. With `COc1ccc(C2CC(c3cccs3)=NN2C(=O)COc2cccc3c2CCCC3O)cc1OC` (stereo not drawn), the IC50 came out at 1150 nM. This IC50 and that of the molecule before are within 1.5-fold of each other.

In turn, `COc1cc(C=CC(=O)N2CCN(Cc3cccc(C)c3)CC2)ccc1OCc1c(C)noc1C` returned an IC50 of 1030 nM. For `COc1ccc(N2CCN(CCc3ccc(NC(=O)c4ccc([N+](=O)[O-])cc4)cc3)CC2)c(OC)c1` the value was 1170 nM; for `CCN(CC)CCCSc1ccc(-c2ccc(SCCCN(CC)CC)cc2)cc1`, 1160 nM; for `CN1CCN(Cc2cc3cc(NC(=O)/C=C/c4cccc(Cl)c4)ccc3s2)CC1`, 270 nM. The molecule `COc1cc(NC(=O)c2sc(-c3ccc(Cl)cc3)cc2NC(=O)c2cccc(N(C)C)c2)ccc1OCCN1CCCC1` gave an IC50 of 710 nM. `O=C(Nc1ccnc2ccccc12)NC1CCN(Cc2ccccc2)CC1` showed an IC50 of 990 nM. Turning to `CCN(CC)CCCNCc1ccc(-c2ccc(C(F)(F)F)cc2)cc1`, the IC50 worked out at 990 nM. That is a sub-micromolar value.

In turn, `CCOc1ccc(N(CC)S(=O)(=O)c2cc(Br)cc3c2N(C(=O)C2CC2)CC3)cc1` showed a half-maximal inhibitory concentration (IC50) of 130 nM. In the case of `CS(=O)(=O)c1ccccc1CNC(=O)c1ccc(-c2cccc(-c3nc4ccc(C(F)(F)F)cc4[nH]3)c2)cc1`, the IC50 came to 870 nM.

The molecule `COc1cc2ccccc2cc1CCNCCCCNCCc1cc2ccccc2cc1OC` gave an IC50 of 400 nM. On to `CC(C)CNCc1cccc(-c2ccc(CNc3ccc(C(=O)c4ccccc4)cc3)cc2)c1`, for which the IC50 is 760 nM. Turning to `CS(=O)(=O)N1CC2(CCN(CCC(NC(=O)Nc3ccccc3)c3ccc(Cl)c(Cl)c3)CC2)c2ccccc21` (stereo not drawn), the IC50 was 820 nM. This IC50 and that of the molecule before are within 1.5-fold of each other. On to `CCn1c(-c2nc(-c3ccc4c(c3)OCO4)cnc2N)nc2cnccc21`, for which the IC50 was 430 nM. As for `CNC(=C[N+](=O)[O-])NCCSCc1cc(C)c(CN(C)C)s1`, the IC50 amounted to 350 nM. This IC50 and that of the molecule before are within 1.5-fold of each other. Next, `O=C(NC(c1ccc(Cl)cc1)c1ccc2cccnc2c1O)c1ccccc1` (stereo not drawn): 560 nM; `CCCCCC(C)(C)NC[C@@H](O)[C@H](Cc1ccccc1)NC(=O)c1cc(NCC)cc(N2CCCC2=O)c1`: 670 nM; `CC(C)CCCC(C)(C)NC[C@@H](O)[C@H](Cc1ccccc1)NC(=O)c1cc(NC(C)C)cc(N2CCCCS2(=O)=O)c1`: 210 nM. As for `CC(C)CNCc1ccc(-c2ccc(CN(C(=O)NC3CCCCC3)C3CCN(Cc4ccccc4)CC3)cc2)cc1`, the IC50 was 780 nM. `CCCCCCCN(Cc1ccc(OC(C)(C)C(=O)OCC)cc1)C(=O)Nc1ccccc1OCC` gave an IC50 of 1030 nM.

In the case of `O=C(NCCN1CCCC1)c1cccc(-c2ccc(-c3nc4ccc(C(F)(F)F)cc4[nH]3)cc2)c1`, the IC50 was 750 nM. This IC50 and that of the molecule before are within 1.5-fold of each other. On to `COc1cc(C)nc2ccc(NC(=O)Nc3ccc([N+](=O)[O-])cc3C)cc12`, for which the IC50 was 600 nM.

`O=c1cc(NCCCNC2CCc3ccc(Cl)cc32)[nH]c2ccccc12` (stereo not drawn) returned a half-inhibitory concentration (IC50) of 860 nM. As for `Cc1cc(Cl)ccc1OC(C)C(=O)N1CCc2ccccc21` (stereo not drawn), the IC50 was determined as 670 nM. Molecule `Cc1cc(N2CCC(NS(=O)(=O)c3ccccc3)CC2)nc(Nc2cccc(C#N)c2)n1` returned an IC50 of 1350 nM. `Clc1ncccc1-c1nc(NCCC(c2ccccc2)c2ccccc2)no1` registered an IC50 of 1000 nM.

Take `COC(=O)c1ccc2[nH]cc(C3CCN(CCC4CCN(C(=O)/C=C/c5ccc(Cl)c(Cl)c5)CC4)CC3)c2c1`: the IC50 came to 510 nM. `CCCCN(C(=O)c1ccccc1Cl)c1nnc(-c2ccccc2C)s1` had an IC50 of 1020 nM. `CCN(CC)CCCNc1ncc2c(-c3ccc(NC(=O)Nc4cc(C(F)(F)F)ccc4F)cc3)nn(C)c2n1` registered an IC50 of 220 nM. `COc1ccccc1CNc1nc(Nc2ccccc2C)nc2ccccc12` displayed a half-maximal inhibitory concentration (IC50) of 810 nM. Take `CCOC(=O)c1ccc(NC(=O)N[C@@H](Cc2ccccc2)C(=O)NC2CCN(Cc3ccc(OCCCN(C)C)cc3)C2)cc1` (stereo partly drawn): the IC50 is 700 nM. `COc1cc(Cl)c(C)cc1N(Cc1ccccc1-c1ccccc1)S(=O)(=O)c1ccc(C(F)(F)F)cc1` registered a half-maximal inhibitory concentration (IC50) of 1050 nM. `O=C(N[C@@H](Cc1ccccc1)[C@H](O)CNC1CCc2ccccc2C1)c1cc(C2CCCC2)cc(N2CCCC2=O)c1` (stereo partly drawn) came in with an IC50 of 160 nM.

The molecule `N#Cc1ccc(-c2ccc(OCC(O)CN3CCCN(Cc4cccc(O)c4Cl)CC3)cc2)cc1` (stereo not drawn) gave an IC50 of 690 nM. Take `O=C(/C=C/c1ccc(C(F)(F)F)cc1)NC1CCC(CN2CCC(c3c[nH]c4ccccc34)CC2)CC1` (stereo not drawn): the half-inhibitory concentration (IC50) was 960 nM and 370 nM.

The molecule `Cc1c(CNCCCNc2cc(=O)c3ccccc3[nH]2)sc(C(F)F)c1Br` displayed an IC50 of 870 nM.

As to `COc1ccc2nccc([C@@H](O)CN3CCC(NCc4ccc5nnsc5c4)CC3)c2c1`, the half-maximal inhibitory concentration (IC50) was determined as 710 nM.

Source of the values: PubChem BioAssay AID2305 (GlaxoSmithKline (GSK), 2010).
